Measured values published in ChEMBL document CHEMBL1201862, “PubChem BioAssay data set” (2004).
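How tested: cells in 96-well plates exposed to compound for 48 hours at five concentrations. GI50 is the concentration that inhibits growth by half.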 Active and inactive are the calls of the source. Rule as the data show it: active = GI50 up to about 1.1 µM and inactive = higher. Residues, ends and D or L forms follow the SMILES beside them. *: point of attachment. Cbz = O=C(OCc1ccccc1)*

Assays:
Test in all cases: inhibition of tumour cell growth, NCI panel, 48 h
786-0 = test system: 786-0
ACHN = test system: ACHN
COLO 205 = test system: COLO 205
HCT-15 = test system: HCT-15
HOP-92 = test system: HOP-92
HT-29 = test system: HT-29
Hs-578T = test system: Hs-578T
IGROV-1 = test system: IGROV-1
MDA-MB-231 = test system: MDA-MB-231
MDA-MB-435 = test system: MDA-MB-435
MOLT-4 = test system: MOLT-4
NCI-H226 = test system: NCI-H226
NCI-H522 = test system: NCI-H522
OVCAR-5 = test system: OVCAR-5
RXF 393 = test system: RXF 393
SK-MEL-28 = test system: SK-MEL-28
SK-MEL-5 = test system: SK-MEL-5
SN12C = test system: SN12C
U-251 = test system: U-251
UACC-62 = test system: UACC-62

Row | Structure (SMILES) | GI50 (786-0) | GI50 (ACHN) | GI50 (COLO 205) | GI50 (HCT-15) | GI50 (HOP-92) | GI50 (HT-29) | GI50 (Hs-578T) | GI50 (IGROV-1) | GI50 (MDA-MB-231) | GI50 (MDA-MB-435) | GI50 (MOLT-4) | GI50 (NCI-H226) | GI50 (NCI-H522) | GI50 (OVCAR-5) | GI50 (RXF 393) | GI50 (SK-MEL-28) | GI50 (SK-MEL-5) | GI50 (SN12C) | GI50 (U-251) | GI50 (UACC-62)
1 | CC(NC(=O)C(NC(=O)OCc1ccccc1)C(C)C)C(=O)NCC(=O)O (stereo not drawn) (Cbz-Val-Ala-Gly-OH; configuration not given here) | > 100 µM (inactive) | > 100 µM (inactive) | > 100 µM (inactive) | > 100 µM | > 100 µM (inactive) | > 100 µM (inactive) | > 100 µM (inactive) | > 100 µM (inactive) | > 100 µM (inactive) | > 100 µM (inactive) | > 100 µM (inactive) | > 100 µM (inactive) | > 100 µM (inactive) | > 100 µM (inactive) | > 100 µM (inactive) | > 100 µM (inactive) | > 100 µM (inactive) | > 100 µM (inactive) | > 100 µM (inactive) | > 100 µM (inactive)
2 | C/C(Cl)=N/OC(=O)Nc1ccc(S(N)(=O)=O)c(C)c1 | 2.03 µM (inactive) | 2.15 µM (inactive) | 2.17 µM (inactive) | 2.02 µM | 2 µM (inactive) | 17.8 µM (inactive) | 43.4 µM (inactive) | 15.4 µM (inactive) | 8.26 µM (inactive) | 15.1 µM (inactive) | 1.5 µM (inactive) | 23.6 µM (inactive) | 1.45 µM (inactive) | 18.3 µM (inactive) | 16.9 µM (inactive) | 13.6 µM (inactive) | 12.9 µM (inactive) | 13.4 µM (inactive) | 18.5 µM (inactive) | 15.7 µM (inactive)
3 | CCN1CCN=c2c3cc(OC)ccc3n3cnc4ccc1c2c43 | 0.0759 µM (active) | 0.131 µM (active) | 0.15 µM (active) | 0.177 µM | 0.776 µM (active) | 0.173 µM (active) | 0.313 µM (active) | 2.02 µM (inactive) | 0.275 µM (active) | 0.197 µM (active) | 0.0879 µM (active) | 0.323 µM (active) | 0.00865 µM (active) | 0.316 µM (active) | 0.33 µM (active) | 0.506 µM (active) | 0.27 µM (active) | 0.142 µM (active) | 0.192 µM (active) | 0.246 µM (active)
4 | Cc1ccc(/C=C2\CCCC(CN3CCCCC3)C2=O)cc1 (stereo not given) | 2.02 µM (inactive) | 3.98 µM (inactive) | 1.82 µM (inactive) | 2.14 µM | 1.81 µM (inactive) | 1.77 µM (inactive) | 2.13 µM (inactive) | 1.96 µM (inactive) | 1.85 µM (inactive) | 1.82 µM (inactive) | 4 µM (inactive) | 2.29 µM (inactive) | 1.79 µM (inactive) | 15 µM (inactive) | 1.56 µM (inactive) | 1.63 µM (inactive) | 4.66 µM (inactive) | 2.96 µM (inactive) | 14.3 µM (inactive) | 4.73 µM (inactive)
5 | Cc1nn(C(=O)c2ccc(Cl)cc2)c2c1C(c1cccc([N+](=O)[O-])c1)SC(=N)N2 (stereo not given) | > 10 µM (inactive) | > 10 µM (inactive) | > 10 µM (inactive) | 2.56 µM | > 10 µM (inactive) | > 10 µM (inactive) | > 10 µM (inactive) | > 10 µM (inactive) | > 10 µM (inactive) | > 10 µM (inactive) | > 10 µM (inactive) | > 10 µM (inactive) | > 10 µM (inactive) | > 10 µM (inactive) | > 10 µM (inactive) | > 10 µM (inactive) | > 10 µM (inactive) | > 10 µM (inactive) | > 10 µM (inactive) | > 10 µM (inactive)
6 | c1ccc(-c2nc(-c3ccccc3)c(-c3ccccc3)[nH]2)cc1 | 54 µM (inactive) | > 100 µM (inactive) | > 100 µM (inactive) | > 100 µM | > 100 µM (inactive) | > 94.6 µM (inactive) | 23.9 µM (inactive) | > 91.6 µM (inactive) | > 72.6 µM (inactive) | > 100 µM (inactive) | > 35.8 µM (inactive) | > 100 µM (inactive) | > 82.6 µM (inactive) | > 100 µM (inactive) | > 100 µM (inactive) | > 100 µM (inactive) | > 100 µM (inactive) | > 87.5 µM (inactive) | 42.3 µM (inactive) | > 94.4 µM (inactive)
7 | CCCCCCCCCCCC/C=C\CC[C@@H](O)[C@H](O)CC[C@H](O)[C@@H]1CC[C@@H](CCCCCCCC2=C[C@H](C)OC2=O)O1 [GIGANTRIONENIN] | 6.21 µM (inactive) | 1.17 µM (inactive) | 2.98 µM (inactive) | 3.85 µM | 2.47 µM (inactive) | 2.31 µM (inactive) | 3.03 µM (inactive) | 3.18 µM (inactive) | 7.18 µM (inactive) | 0.883 µM (active) | 2.17 µM (inactive) | 1.48 µM (inactive) | 7.45 µM (inactive) | 18.5 µM (inactive) | 19.4 µM (inactive) | 2.94 µM (inactive) | 1.26 µM (inactive) | 5.05 µM (inactive) | 3.08 µM (inactive) | 1.35 µM (inactive)
8 | COc1nc(N)nc2c1ncn2C1CC(O)C(CO)O1 (stereo not given) | > 100 µM (inactive) | > 100 µM (inactive) | > 100 µM (inactive) | > 100 µM | > 100 µM (inactive) | > 100 µM (inactive) | > 100 µM (inactive) | > 100 µM (inactive) | > 100 µM (inactive) | > 100 µM (inactive) | > 100 µM (inactive) | > 100 µM (inactive) | > 100 µM (inactive) | > 100 µM (inactive) | > 100 µM (inactive) | > 100 µM (inactive) | > 100 µM (inactive) | > 100 µM (inactive) | > 100 µM (inactive) | > 100 µM (inactive)
9 | CCOC(=O)CSc1nc(N)c2c(-c3ccccc3)c3c(nc2n1)CCCC3 | > 100 µM (inactive) | > 100 µM (inactive) | > 100 µM (inactive) | > 100 µM | > 100 µM (inactive) | > 100 µM (inactive) | 65.8 µM (inactive) | > 100 µM (inactive) | > 100 µM (inactive) | > 100 µM (inactive) | > 100 µM (inactive) | > 100 µM (inactive) | > 100 µM (inactive) | > 100 µM (inactive) | > 100 µM (inactive) | > 100 µM (inactive) | > 100 µM (inactive) | > 100 µM (inactive) | > 100 µM (inactive) | > 100 µM (inactive)
10 | CCN(CC)CCNc1c(OC)cc(C)c2sc3ccccc3c(=O)c12 | 7.53 µM (inactive) | 4.46 µM (inactive) | 2.06 µM (inactive) | 4.06 µM | 16.9 µM (inactive) | 2.61 µM (inactive) | 7.5 µM (inactive) | 7.69 µM (inactive) | 2.74 µM (inactive) | 3.08 µM (inactive) | 2.31 µM (inactive) | 3.4 µM (inactive) | 5.33 µM (inactive) | 3.72 µM (inactive) | 10.1 µM (inactive) | 1.92 µM (inactive) | 1.91 µM (inactive) | 2.79 µM (inactive) | 4.34 µM (inactive) | 1.79 µM (inactive)
